Measurements reported in US20220041603A1, “SRC INHIBITOR COMPOUNDS FOR SKELETAL MUSCLE MODULATION, METHODS AND USES THEREOF” (SOCIETE DES PRODUITS NESTLE S.A., priority 2018, published 2022).

What was measured:
[1] = system: human primary muscle stem cells; experiment: Assay for muscle stem cell commitment (Pax7/MyoD immunofluorescence high content screening); format: cell-based; settings: Human Skeletal Muscle Myoblasts, donor 8 and donor 4, dose-dependent response, cultures grown 96 hours; for proportion of MyoD+ cells as percent of total cell number (myogenic commitment): MyoD+ = Pax7-/MyoD+ cells; for number of Pax7+ cells (expansion of human primary muscle stem cells): Pax7+ regardless of MyoD expression
Description: (§1) The inventors developed a high content screening to test in vitro compounds on human primary adult muscle cells. Human Skeletal Muscle Myoblasts (HSMM) were purchased from Lonza (https://bioscience.lonza.com). These cells were isolated from the upper arm or leg muscle tissue of normal donors and used after the second passage. Several donors were tested to ensure cell viability and purity before selecting the final donors, which are a person (Donor 8) and a person (Donor 4).
The primary screening assay was based on the high content detection of two important myogenic regulatory factors (Pax7 and MyoD) by immunofluorescence. Pax7 and MyoD are the major hallmarks of muscle stem cell stemness and commitment and can be used to monitor muscle stem cell progeny. In particular, Pax7 marks early amplification while MyoD is a later marker for myogenic commitment, and combinations of these markers define the different states of proliferation, differentiation and self-renewal.
Human primary myoblasts were seeded in 384 well plates at a density of 1′000 cells per well in skeletal muscle growth medium (SKM-M, AMSbio). For treatment, compounds were directly added to the myoblast cultures 16 hours after initial plating. All cultures were then grown for 96 hours. Cells were stained for Pax7 and MyoD expression using antibodies directed against Pax7 and MyoD and counterstained with Hoechst 33342 to visualize cell nuclei. […] Pax7+ cells are defined as cells that express Pax7 regardless of MyoD expression. Image acquisition was performed using the ImageXpress (Molecular Devices) platform. Custom module analysis based on Multi-Wavelength Cell Scoring of the MetaXpress software was used for quantification.

[2] = system: human primary muscle cells; experiment: Assay for myogenesis (troponin-T myotube detection); format: cell-based; settings: human primary myoblasts, donor 8 and donor 4; dose dependent response; compound treatment 96 hours after differentiation induction
Excerpt: as §1, with “passage.” for “passage. Several donors were tested to ensure cell viability and purity before selecting the final donors, which are a person (Donor 8) and a person (Donor 4).”
This secondary assay focused on the later stage of myogenesis when the muscle cells fuse together and form multinucleated myotubes. This assay was based on the detection of the mature troponin-T protein that is expressed in myotubes. In particular, two measurements were made:
Fusion factor, which is the % of nuclei that are inside the multinucleated myotubes compare to total nuclei and give a readout for muscle cell differentiation.
Myotube area, which is measured based on the Troponin T staining and give a readout on the myotube size and muscle fiber growth.
After one day, the differentiation is induced by a medium change. For treatment, compounds were directly added to the myoblast cultures for 96 hours. Myotubes were stained for TroponinT expression using antibodies directed against TroponinT and counterstained with Hoechst 33342 to visualize cell nuclei. Image acquisition was performed using the ImageXpress (Molecular Devices) platform. Custom module analysis based on Multi-Wavelength Cell Scoring of the MetaXpress software was used for quantification.

Row | Compound | proportion of MyoD+ cells as percent of total cell number (myogenic commitment) [1] | number of Pax7+ cells (expansion of human primary muscle stem cells) [1] | myofiber growth (area covered by troponinT-positive myotubes) [2] | myogenic differentiation (Fusion Factor, percent nuclei within troponinT-positive myotubes) [2]
1 | CC(C)(C)n1nc(-c2cccc3ccccc23)c2c(N)ncnc21 [Napthyl-PP1, 1-(1,1-Dimethylethyl)-3-(1-naphthalenyl)-1H-pyrazolo[3,4-d]pyrimidin-4-amine] | increase | increase | enhances | enhances
2 | Cc1ccc(-c2nn(C(C)(C)C)c3ncnc(N)c23)cc1 [PP1, 1-(1,1-Dimethylethyl)-3-(4-methylphenyl)-1H-pyrazolo[3,4-d]pyrimidin-4-amine] | increase | increase | – | enhances
3 | CC(C)(C)n1nc(-c2ccc(Cl)cc2)c2c(N)ncnc21 [PP2, 3-(4-Chlorophenyl)-1-(1,1-dimethylethyl)-1H-pyrazolo[3,4-d]pyrimidin-4-amine] | increase | increase | – | enhances
